Data on one molecule can be found in US6521615B2, “Diagnosing an animal for pyrophosphate gout, osteoporosis, or osteoarthritis by assaying intracellular pyrophosphate content in peripheral blood cells” (The Regents of the University of California, priority 1998, dated 2003).

Entries after “also recorded” stand apart in the source; their conditions may differ. Read-outs that look alike come from different tables or passages of the source.

For this assay, the system named is human peripheral blood lymphocytes (mononuclear cells). The procedure:
Mononuclear Cell Isolation: For this purpose 5 ml of freshly drawn heparinized blood was layered on 3.0 ml of Histopaque in a 15 ml polypropylene centrifuge tube and centrifuged at room temperature for 20 minutes at 1,000 g. The mononuclear cell layer was then removed from the tube and transferred into a new 15-ml tube. Volume was brought to a total of 5 ml by addition of Hanks buffered salt solution lacking Mg and Ca (HBSS). This suspension of cells was again layered onto 3.0 ml of Histopaque and again centrifuged as before.
Resuspension of the centrifuged cells in 12-ml HBSS was repeated three times, each followed by 10 min centrifugation at a lower g of 250 g, 50 g, and 50 g to remove contaminating platelets which carry substantial PPi.
After decanting the supernatant, the cell pellet was resuspended in 1.0 ml of HBSS for counting in a hemocytometer. After counting, the cell suspension was spun for 10 minutes in a microfuge at 14,000 rpm. After decanting and thoroughly removing the supernatant, 3.0 μl of 0.1 M sodium […] (an alkaline phosphatase inhibitor) were added and the cells were lysed by addition of 100 μl of 1% triton X-100 and vortexing. The lysate is then stored frozen at −20° C. until time of assay.
PPi Assay: The assay of PPi in mononuclear cells in Tables 1 and 2 were done by the luminescent methods (Barshop, B A et al. Analyt Biochem (1991) 197:266-272). […] Each sample was assayed in duplicate and in the presence and absence of added pyrophosphate as a recovery test.
Volunteer two was an adult volunteer who had just been scheduled by the same internist to start the same medication for their hypertension.

As for `COc1ccc([C@@H]2Sc3ccccc3N(CCN(C)C)C(=O)[C@@H]2OC(C)=O)cc1` [diltiazem], under “mononuclear cells of peripheral blood, result in words”, the “effect on intracellular concentration of pyrophosphate (PPi)” value was “lowers the intracellular concentration of pyrophosphate (PPi); also recorded: comparable lowering of mononuclear cells in one of two patients”. In addition, the PPi is recorded as 241 pmole/10^6 cells (subject one (chondrocalcinosis), diltiazem 60 mg/day taken for only one day, collection 03/13/91); 128 pmole/10^6 cells (subject one (chondrocalcinosis), diltiazem 60 mg/day, collection 05/16/91); 343 pmole/10^6 cells (subject three (chondrocalcinosis), diltiazem 60 mg/day, collection 09/11/91).
